Measurements reported in publication PMC10648349, “Aromatic Diboronic Acids as Effective KPC/AmpC Inhibitors” (Molecules, 2023).
In brackets after ≈: the same amount, converted by molar mass.

Key:
[1] = test system: S. aureus ATCC 43300 MRSA; assay: direct antimicrobial activity (disc-diffusion, MIC, MBC); type: cell-based; conditions: Staphylococcus aureus; for zone of inhibition at 0.4 mg/disc: 0.4 mg per disc, 9 mm disc (linezolid 0.03 mg, 6 mm disc), - no zone, read-out: Diameter of inhibition zone
In short: (§1)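 Following CLSI and EUCAST guidance, DMSO-dissolved compounds were tested by broth MIC, by minimal bactericidal (bacteria) or fungicidal (yeast) concentration, and by disc diffusion at 0.4 mg per disc. Comparators were fluconazole (yeasts), linezolid (Gram-positives) and nitrofurantoin (Gram-negative rods).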

[2] = test system: E. faecalis ATCC 29212; assay: as above; type: cell-based; conditions: Enterococcus faecalis, ATCC29212; for zone of inhibition at 0.4 mg/disc: 0.4 mg per disc, 9 mm disc (linezolid 0.03 mg, 6 mm disc), - no zone, read-out: Diameter of inhibition zone
In short: as §1

[3] = test system: S. aureus ATCC 6538P; assay: as above; type: cell-based; conditions: Staphylococcus aureus, ATCC6538P; for zone of inhibition at 0.4 mg/disc: 0.4 mg per disc, 9 mm disc (linezolid 0.03 mg, 6 mm disc), - no zone, read-out: Diameter of inhibition zone
In short: as §1

[4] = test system: P. aeruginosa MUW 700 cAmpC-positive; assay: checkerboard microdilution, antibiotic plus tested agent; type: cell-based, Pseudomonas aeruginosa
In short: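 β-lactam 1–64 mg/L × agent/PBA 4–16 mg/L checkerboard; meropenem vs carbapenemase producers, ceftazidime vs AmpC producer; imipenem, ertapenem added for selected agents. Readout: combination MICs, FICI (average and lowest); off-scale MICs taken as next doubling.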

[5] = test system: C. krusei ATCC 6258; assay: antifungal activity (disc-diffusion, MIC, MFC); type: cell-based, Candida krusei; conditions: Pichia kudriavzevii, ATCC6258; for MIC: fluconazole by Etest; for zone of inhibition at 0.4 mg/disc: 0.4 mg per disc, 9 mm disc (fluconazole 0.025 mg, 6 mm disc), - no zone, read-out: Diameter of inhibition zone
In short: as §1

[6] = test system: P. aeruginosa MUW 700 cAmpC-positive; assay: combination disc test CDT-AmpC; type: cell-based; conditions: Pseudomonas aeruginosa, read-out: Diameter of inhibition zone, CAZ-30 disc with agent; for zone of inhibition at 300 µg/disc: agent 0.3 mg per disc; for zone of inhibition at 100 µg/disc: agent 0.1 mg per disc
[7] = test system: B. subtilis ATCC 6633; assay: direct antimicrobial activity (disc-diffusion); type: cell-based; conditions: Bacillus subtilis, ATCC6633; 0.4 mg per disc, 9 mm disc (linezolid 0.03 mg, 6 mm disc); - no zone; read-out: Diameter of inhibition zone
In short: as §1

[8] = test system: P. aeruginosa MUW 700 AmpC(+); assay: MIC of tested agent alone, microdilution; type: cell-based; conditions: Pseudomonas aeruginosa; read-out: MIC of agent alone
In short: (§2)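 Checkerboard synergy testing crossed two-fold dilutions of the tested agents or PBA (4–16 mg/L) with β-lactam dilutions (1–64 mg/L), and antibiotic MICs were read at each agent level. FICI was derived from the interface wells. Separately, each agent's own MIC came from standard microdilution.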

[9] = test system: K. pneumoniae 83 KPC-3(+), CTX-M-3(+); assay: MIC of tested agent alone, microdilution; type: cell-based; conditions: Klebsiella pneumoniae; read-out: MIC of agent alone
In short: as §2

[10] = test system: E. coli 76 KPC-2(+); assay: MIC of tested agent alone, microdilution; type: cell-based; conditions: Escherichia coli; read-out: MIC of agent alone
In short: as §2

[11] = test system: E. coli 77 CMY-2(+); assay: MIC of tested agent alone, microdilution; type: cell-based; conditions: Escherichia coli; read-out: MIC of agent alone
In short: as §2

[12] = test system: K. pneumoniae 81 KPC-3(+); assay: MIC of tested agent alone, microdilution; type: cell-based; conditions: Klebsiella pneumoniae; read-out: MIC of agent alone
In short: as §2

[13] = test system: K. pneumoniae ATCC BAA-1705 KPC-2(+); assay: MIC of tested agent alone, microdilution; type: cell-based; conditions: Klebsiella pneumoniae, ATCCBAA1705; read-out: MIC of agent alone
In short: as §2

[14] = test system: C. guilliermondii IBA 155; assay: antifungal activity (disc-diffusion, MIC, MFC); type: cell-based, Candida guilliermondii; conditions: Meyerozyma guilliermondii, IBA155; for MIC: fluconazole by Etest; for zone of inhibition at 0.4 mg/disc: 0.4 mg per disc, 9 mm disc (fluconazole 0.025 mg, 6 mm disc), - no zone, read-out: Diameter of inhibition zone
In short: as §1

[15] = test system: K. pneumoniae ATCC 700603 ESBL-positive; assay: combination disc test CDT-ESBL; type: cell-based; conditions: Klebsiella pneumoniae, ATCC700603, read-out: Diameter of inhibition zone, CAZ-30 disc with agent; for zone of inhibition at 300 µg/disc: agent 0.3 mg per disc; for zone of inhibition at 100 µg/disc: agent 0.1 mg per disc
[16] = test system: C. parapsilosis ATCC 22019; assay: antifungal activity (disc-diffusion, MIC, MFC); type: cell-based, Candida parapsilosis; conditions: Lodderomyces parapsilosis, ATCC22019; for MIC: fluconazole by Etest; for zone of inhibition at 0.4 mg/disc: 0.4 mg per disc, 9 mm disc (fluconazole 0.025 mg, 6 mm disc), - no zone, read-out: Diameter of inhibition zone
In short: as §1

[17] = test system: E. coli 77 CMY-2-positive; assay: combination disc test CDT-AmpC; type: cell-based; conditions: Escherichia coli, read-out: Diameter of inhibition zone, CAZ-30 disc with agent; for zone of inhibition at 300 µg/disc: agent 0.3 mg per disc; for zone of inhibition at 100 µg/disc: agent 0.1 mg per disc
[18] = MTT-based viability assay; type: cell-based; conditions: human, MRC-5 human fibroblasts, 72 h
In short: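 Percent viable cells relative to control, measured in triplicate by MTT read-out at 570 nm. Cells: MRC-5 human fibroblasts cultured at 37 °C, 5% CO2 in MEME plus 10% FBS.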

[19] = read-out: Viability of MRC-5 cells (% of viable cells ± SD)

MIC [1] [µg/mL] | MIC [2] [µg/mL] | MIC [3] [µg/mL] | MIC [5] [µg/mL] | MIC [8] [µg/mL] | MIC [9] [µg/mL] | MIC [10] [µg/mL] | MIC [11] [µg/mL] | MIC [12] [µg/mL] | MIC [13] [µg/mL] | MIC [14] [µg/mL] | MIC [16] [µg/mL] | SMILES | zone of inhibition at 300 µg/disc [6] [mm] | zone of inhibition at 0.4 mg/disc [7] [mm] | zone of inhibition at 300 µg/disc [15] [mm] | zone of inhibition at 0.4 mg/disc [1] [mm] | zone of inhibition at 0.4 mg/disc [3] [mm] | viability at 72 h, 12.5 mg/L [18, 19] [%] | viability at 72 h, 25 mg/L [18, 19] [%] | viability at 72 h, 50 mg/L [18, 19] [%] | other results
100 (≈ 544 µM) | 200 (≈ 1090 µM) | 25 (≈ 136 µM) | 100 (≈ 544 µM) | > 400 | > 400 | 400 | 400 | > 400 | > 400 | 400 (≈ 2180 µM) | 100 (≈ 544 µM) | OB(O)c1ccc(B(O)O)c(F)c1 [1b] | – | 23 | – | 13 | 14 | 140 ± 6.7 | 140 ± 8.3 | 117 ± 1.3 | Average FICI with ceftazidime [4]: 0.18; Interpretation of the average FICI with ceftazidime [4]: S (FICI ≤ 0.5, synergy); Interpretation of the lowest FICI with ceftazidime [4]: S (FICI ≤ 0.5, synergy); The lowest FICI with ceftazidime [4]: 0.14; zone of inhibition at 0.4 mg/disc [5]: 22 mm; zone of inhibition at 100 µg/disc [6]: 20 mm; zone of inhibition at 0.4 mg/disc [14]: 24 mm; zone of inhibition at 100 µg/disc [15]: 15 mm; zone of inhibition at 0.4 mg/disc [16]: 12 mm; zone of inhibition at 100 µg/disc [17]: 20 mm
100 (≈ 309 µM) | 200 (≈ 618 µM) | 25 (≈ 77.3 µM) | 50 (≈ 155 µM) | > 400 | 200 | 100 | 100 | 200 | 200 | 25 (≈ 77.3 µM) | 50 (≈ 155 µM) | OB(O)c1cc(Br)c(B(O)O)cc1Br [1i] | – | 18 | – | 11 | 14 | 122 | 114 ± 4.8 | 101.4 ± 0.9 | zone of inhibition at 0.4 mg/disc [2]: 14 mm; zone of inhibition at 0.4 mg/disc [5]: 22 mm; zone of inhibition at 100 µg/disc [6]: 16 mm; zone of inhibition at 0.4 mg/disc [14]: 34 mm; zone of inhibition at 100 µg/disc [15]: 14 mm; zone of inhibition at 0.4 mg/disc [16]: 24 mm; zone of inhibition at 100 µg/disc [17]: 16 mm
400 (≈ 2180 µM) | 400 (≈ 2180 µM) | 200 (≈ 1090 µM) | 200 (≈ 1090 µM) | > 400 | > 400 | > 400 | > 400 | > 400 | > 400 | > 400 | 100 (≈ 544 µM) | OB(O)c1ccc(F)cc1B(O)O [3c] | 20 | 18 | 16 | 11 | 13 | 97.1 ± 6.9 | 106 ± 4.5 | 82.3 ± 12.9 | zone of inhibition at 300 µg/disc [17]: 20 mm
25 (≈ 162 µM) | 25 (≈ 162 µM) | 12.5 (≈ 81.2 µM) | 50 (≈ 325 µM) | > 200 | > 200 | > 200 | > 200 | > 200 | > 200 | 25 (≈ 162 µM) | 50 (≈ 325 µM) | OB(O)c1ccccc1S [7c, 2-mercaptophenylboronic acid] | 11 | 26 | 15 | 22 | 23 | 56.4 ± 3 | 6.6 ± 5.1 | 0 | zone of inhibition at 0.4 mg/disc [2]: 23 mm; zone of inhibition at 0.4 mg/disc [5]: 16 mm; MFC [14]: 200 µg/mL (≈ 1300 µM); zone of inhibition at 0.4 mg/disc [14]: 40 mm; zone of inhibition at 0.4 mg/disc [16]: 29 mm; zone of inhibition at 300 µg/disc [17]: 16 mm; viability at 72 h ([18]; 12.5, 25 and 50 mg/L): 0 to 56.4%

SMILES | MIC [1] [µg/mL] | MIC [2] [µg/mL] | MIC [3] [µg/mL] | MIC [5] [µg/mL] | MIC [8] [µg/mL] | MIC [9] [µg/mL] | MIC [10] [µg/mL] | MIC [11] [µg/mL] | MIC [12] [µg/mL] | MIC [13] [µg/mL] | MIC [14] [µg/mL] | MIC [16] [µg/mL] | zone of inhibition at 300 µg/disc [6] [mm] | zone of inhibition at 0.4 mg/disc [7] [mm] | zone of inhibition at 300 µg/disc [15] [mm] | zone of inhibition at 0.4 mg/disc [1] [mm] | zone of inhibition at 0.4 mg/disc [3] [mm] | viability at 72 h, 12.5 mg/L [18, 19] [%] | viability at 72 h, 25 mg/L [18, 19] [%] | viability at 72 h, 50 mg/L [18, 19] [%] | other results
OB(O)c1ccc(B(O)O)cc1 [1a] | 400 (≈ 2410 µM) | 200 (≈ 1210 µM) | 200 (≈ 1210 µM) | > 400 | > 400 | > 400 | > 400 | > 400 | > 400 | > 400 | > 400 | > 400 | 23 | 17 | 17 | – | – | – | – | – | Average FICI with ceftazidime [4]: 0.16; Interpretation of the average FICI with ceftazidime [4]: S (FICI ≤ 0.5, synergy); Interpretation of the lowest FICI with ceftazidime [4]: S (FICI ≤ 0.5, synergy); The lowest FICI with ceftazidime [4]: 0.08; zone of inhibition at 300 µg/disc [17]: 21 mm; viability at 72 h, 16 mg/L ([18]; 16 mg/L, read-out: Viability of MRC-5 cells (% of viable cells ± SD)): 113 ± 12.5%; viability at 72 h, 32 mg/L ([18]; 32 mg/L, read-out: Viability of MRC-5 cells (% of viable cells ± SD)): 103 ± 11.8%; viability at 72 h, 64 mg/L ([18]; 64 mg/L, read-out: Viability of MRC-5 cells (% of viable cells ± SD)): 89.9 ± 11.4%
OB(O)c1cc(C(F)(F)F)cc(B(O)O)c1F [2e] | 12.5 (≈ 49.7 µM) | 50 (≈ 199 µM) | 6.25 (≈ 24.8 µM) | > 400 | > 400 | > 400 | > 400 | > 400 | > 400 | > 400 | > 400 | 400 (≈ 1590 µM) | 16 | 20 | 16 | 25 | 29 | 96.6 ± 6.4 | 84.4 ± 4.8 | 63.1 ± 1.4 | zone of inhibition at 0.4 mg/disc [2]: 21 mm; zone of inhibition at 0.4 mg/disc [14]: 14 mm; zone of inhibition at 300 µg/disc [17]: 19 mm
OB(O)c1ccc(C(F)(F)F)cc1B(O)O [3e] | 400 (≈ 1710 µM) | 200 (≈ 856 µM) | 100 (≈ 428 µM) | 25 (≈ 107 µM) | > 400 | > 400 | > 400 | > 400 | > 400 | > 400 | 3.12 (≈ 13.3 µM) | 12.5 (≈ 53.5 µM) | 17 | 22 | 14 | 15 | 17 | 98.8 ± 25.6 | 92.9 ± 2.7 | 64.4 ± 0.4 | zone of inhibition at 0.4 mg/disc [2]: 14 mm; zone of inhibition at 0.4 mg/disc [5]: 23 mm; MFC [14]: 400 µg/mL (≈ 1710 µM); zone of inhibition at 0.4 mg/disc [14]: 40 mm; zone of inhibition at 0.4 mg/disc [16]: 30 mm; zone of inhibition at 300 µg/disc [17]: 17 mm
